The values below come from patent US20210122763A1, “OGA INHIBITOR COMPOUNDS” (Janssen Pharmaceutica NV, priority 2018, published 2021).

Counter-ions that a name gives are not always drawn.

Series [1] addresses T1, recombinant human Meningioma Expressed Antigen 5 (MGEA5), also referred to as O-GlcNAcase (OGA) (Homo sapiens, UniProt O60502).
T1 construct: Full length OGA enzyme was purchased at OriGene (cat #TP322411); purchased OriGene TP322411
T1 sequence (O60502 1-916): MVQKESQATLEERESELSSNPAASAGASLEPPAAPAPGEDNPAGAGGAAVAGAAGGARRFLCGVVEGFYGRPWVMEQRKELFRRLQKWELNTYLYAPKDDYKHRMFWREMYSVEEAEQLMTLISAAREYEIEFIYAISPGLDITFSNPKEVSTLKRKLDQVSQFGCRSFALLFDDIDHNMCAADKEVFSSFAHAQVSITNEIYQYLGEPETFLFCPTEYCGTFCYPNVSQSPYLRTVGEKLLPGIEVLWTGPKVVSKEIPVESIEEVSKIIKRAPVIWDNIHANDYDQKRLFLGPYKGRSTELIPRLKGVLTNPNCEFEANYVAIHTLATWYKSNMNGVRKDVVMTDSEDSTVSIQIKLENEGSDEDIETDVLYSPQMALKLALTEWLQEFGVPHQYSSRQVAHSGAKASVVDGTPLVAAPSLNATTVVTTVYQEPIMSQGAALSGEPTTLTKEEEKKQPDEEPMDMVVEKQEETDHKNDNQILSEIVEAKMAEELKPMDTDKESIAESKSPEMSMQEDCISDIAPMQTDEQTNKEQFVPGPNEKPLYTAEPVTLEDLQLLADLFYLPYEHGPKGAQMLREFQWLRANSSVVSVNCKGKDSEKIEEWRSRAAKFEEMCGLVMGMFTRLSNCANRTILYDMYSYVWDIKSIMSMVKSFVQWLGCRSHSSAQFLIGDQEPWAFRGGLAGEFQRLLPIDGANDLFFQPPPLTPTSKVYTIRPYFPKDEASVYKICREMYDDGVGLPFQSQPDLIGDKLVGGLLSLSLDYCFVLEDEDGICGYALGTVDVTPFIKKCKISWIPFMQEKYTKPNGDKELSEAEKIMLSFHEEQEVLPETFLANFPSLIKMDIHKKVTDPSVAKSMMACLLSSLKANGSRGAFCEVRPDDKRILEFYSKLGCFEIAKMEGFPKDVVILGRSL
The experiment in a line: OGA biochemical assay (inhibition of FM-GlcNAc hydrolysis, fluorescence). The note with it: for Emax: read-out: Enzymatic Emax (%); for IC50: read-out: Enzymatic hOGA, pIC50 (converted). Summed up: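 Full-length OGA at 2 nM was pre-incubated 60 min at room temperature with compound, then FM-GlcNAc at 100 uM final was added in citrate/phosphate buffer pH 7.2 with 0.005% Tween-20. After 6 h at room temperature, carbonate pH 11.0 stopped the reaction. Fluorescence read at 485/538 nm; IC50 and Hill coefficient from curve fit against no-inhibitor and saturating-standard controls.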

The target of a further series is T2, OGA (Homo sapiens, UniProt O60502).
T2 construct: HEK293 cells inducible for P301L mutant human Tau (isoform 2N4R) were established at Janssen; endogenous in cells; host or cells: HEK293 cells inducible for P301L mutant human Tau (2N4R)
T2 sequence (O60502 1-916): T1 sequence (O60502 1-916)
The experiment in a line: OGA cellular assay (ICC detection of O-GlcNAcylated proteins in HEK293 cells inducible for P301L mutant human Tau). It counts as cell-based. The note with it: 6 hours incubation; for Emax: HEK293, HEK293 cells inducible for P301L mutant human Tau, maximum = Thiamet G 200 uM; for EC50: HEK293 cells inducible for P301L mutant human Tau, read-out: Cellular hOGA, pEC50 (converted). The gist of the method:
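HEK293 cells with inducible P301L 2N4R Tau, seeded in low-glucose medium, were exposed to compounds for 6 hours (0.2% DMSO), then PFA-fixed and stained with CTD110.6. Imaging intensity at 488 nm measured O-GlcNAcylation, with Hoechst nuclei counts for toxicity. IC50s came from non-linear regression, with Thiamet G at 200 uM as maximum inhibition.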

As usually defined, the Emax is the greatest response seen or fitted, relative to the assay's reference. By melting point is commonly meant the temperature of the solid-liquid transition. For `Cc1ccc(OC2CCN(C(C)c3ccc4c(c3)OCO4)CC2)cn1.Cl` (centres unmarked) [Compound 31], the melting point is 278.4 °C. For the same compound, in series [1], the Emax turned out to be 96% and the IC50 was 794 nM. Moreover, at OGA, the Emax came out at 21% and the EC50 was above 1000 nM.

Consider `CCOc1cc(OC2CCN(C(C)c3ccc4c(n3)OCCO4)CC2)cc(C)n1.Cl` (centres unmarked) [Compound 142], for which the melting point came to 119.6 °C. Moreover, in series [1], the Emax was determined as 104% and the IC50 is 25.1 nM. Also, on OGA, the Emax was 73% and the EC50 was 158 nM.

In the case of `Cc1nc(OC2CCN(C(C)c3nc4c(cc3F)OCCO4)CC2)ccc1C#N` (centres unmarked) [Compound 112], the melting point was 153.41 °C. In addition, in series [1], the Emax came to 96% and the IC50 was 10 nM. For the same compound, at OGA, the Emax was determined as 87% and the EC50 was 158 nM.

`Cc1cc(NC2CCN(C(C)c3nc4c(cc3F)OCCO4)CC2)cc(C)n1` (centres unmarked) [Compound 133] yielded a melting point of 250 °C. Further, in series [1], the Emax worked out at 97% and the IC50 is 25.1 nM. In addition, at OGA, the Emax stood at 87% and the EC50 was 50.1 nM.

Take `Cc1ncc(OC2CCN(C(C)c3ccc4c(n3)OCCO4)CC2)cn1.Cl` (centres unmarked) [Compound 90]: the melting point worked out at 72.8 °C. In series [1], the Emax turned out to be 100% and the IC50 was 100 nM. Also, at OGA, the Emax amounted to 48% and the EC50 was above 1000 nM.

The compound `Cc1ncc(COC2CCN([C@@H](C)c3nc4c(cc3F)OCCO4)CC2)cn1` (single isomer, unassigned) [Compound 137] returned a melting point of 70.1 °C. In series [1], the Emax was 96% and the IC50 is 398 nM. Also, at OGA, the Emax came to 25% and the EC50 is above 1000 nM.

Regarding `Cc1cnc(OC2CCN(C(C)c3ccc4c(n3)OCCO4)CC2)cn1` (centres unmarked) [Compound 141], the melting point is 119.6 °C. For the same compound, in series [1], the Emax was determined as 97% and the IC50 was 200 nM. In addition, on OGA, the Emax was 51% and the EC50 is 794 nM.

In turn, `Cc1cc(OC2CCN([C@@H](C)c3nc4c(cc3F)CCO4)CC2)cc(C)n1` (single isomer, unassigned) (as salt: HCl) [Compound 145] returned a melting point of 103.27 °C.

Compound `Cc1cc(OC2CCN(C(C)c3nc4c(cc3F)OCCO4)CC2)ncc1C#N` (centres unmarked) [Compound 113] came in with a melting point of 161.44 °C. Further, in series [1], the Emax is 96% and the IC50 is 15.8 nM. Further, at OGA, the Emax was determined as 83% and the EC50 is 126 nM.

With `Cc1ccc(NC2CCN(C(C)c3nc4c(cc3F)OCCO4)CC2)cn1` (centres unmarked) [Compound 126], the melting point turned out to be 138 °C. In series [1], the Emax is 99% and the IC50 is 25.1 nM. Also, on OGA, the Emax came out at 73% and the EC50 is 63.1 nM.

Turning to `Cc1ncc(OC2CCN(C(C)c3nc4c(cc3F)OCCO4)CC2)cn1.Cl` (centres unmarked) [Compound 91], the melting point is 134.6 °C. Also, in series [1], the maximal response (Emax) was determined as 105% and the IC50 is 15.8 nM. Besides, on OGA, the maximal response (Emax) was 86% and the EC50 is 200 nM.

Regarding `CNC(=O)c1ccc(OC2CCN(C(C)c3ccc4c(n3)OCCO4)CC2)cn1` (centres unmarked) [Compound 122], the melting point came to 94.5 °C. Besides, in series [1], the Emax turned out to be 100% and the IC50 is 79.4 nM. Moreover, on OGA, the Emax was 48% and the EC50 was 794 nM.

With `Cc1cc(OC2(CF)CCN(C(C)c3ccc4c(n3)OCCO4)CC2)cc(C)n1` (centres unmarked) (as salt: HCl) [Compound 132], the melting point came out at 189.8 °C.

`Cc1ncc(COC2CCN(C(C)c3nc4c(cc3F)OCCO4)CC2)cn1` (centres unmarked) [Compound 135] showed a melting point of 132.9 °C. Further, in series [1], the Emax stood at 97% and the IC50 is 31.6 nM. Besides, on OGA, the Emax was found to be 97% and the EC50 was 79.4 nM.

`CCc1cc(OC2CCN(C(C)c3ccc4c(n3)OCCO4)CC2)cc(C)n1` (centres unmarked) (as salt: HCl) [Compound 129] yielded a melting point of 66 °C.

As for `Cc1ccc(OC2CCN(C(C)c3ccc4c(n3)OCCO4)CC2)nn1.Cl` (centres unmarked) [Compound 151], the melting point was 168 °C. In addition, in series [1], the Emax was 98% and the IC50 is 200 nM. Also, on OGA, the Emax is 30% and the EC50 was above 1000 nM.

`Cc1ncc(NC2CCN(C(C)c3nc4c(cc3F)OCCO4)CC2)cn1` (centres unmarked) [Compound 127] had a melting point of 209.9 °C. Besides, in series [1], the Emax turned out to be 98% and the IC50 was 20 nM. Also, at OGA, the maximal effect (Emax) was determined as 81% and the EC50 is 135 nM.

With `Cc1cncc(OC2CCN(C(C)c3ccc4c(n3)OCCO4)CC2)n1` (centres unmarked) [Compound 76], the melting point was 91.71 °C. For the same compound, in series [1], the Emax turned out to be 99% and the IC50 is 79.4 nM. On OGA, the Emax was 36% and the EC50 was above 1000 nM.

For `Cc1cc(OC2CCN(C(C)c3ccc4c(n3)OCCO4)CC2)cc(C(C)C)n1` (centres unmarked) (as salt: HCl) [Compound 130], the melting point turned out to be 186.4 °C.

Compound `Cc1ncc(COC2CCN(C(C)c3nc4c(cc3F)OCCO4)CC2)cn1` (single isomer, unassigned) [Compound 136] yielded a melting point of 64.4 °C. In series [1], the Emax came out at 95% and the IC50 is 12.6 nM. At OGA, the Emax is 81% and the EC50 was 50.1 nM.

The compound `Cc1cc(OC2CCN(C(C)c3ccc4c(n3)OCCO4)CC2)cc(OC(C)C)n1` (centres unmarked) (as salt: HCl) [Compound 124] came in with a melting point of 196.6 °C.

In turn, `Cc1cc(OC2CCN([C@H](C)c3nc4c(cc3F)OCCO4)CC2)cc(C)n1` (single isomer, unassigned) (as salt: HCl) [Compound 148] registered a melting point of 255.75 °C.

`Cc1cc(OC2CCN(C(C)c3ccc4c(n3)OCCO4)CC2)cc(C2CC2)n1` (centres unmarked) (as salt: HCl) [Compound 125] registered a melting point of 171.4 °C.

`Cc1ccc(OC2CCN(C(C)c3nc4c(cc3F)OCCO4)CC2)nc1C` (centres unmarked) [Compound 156]: the melting point is 140.6 °C. Also, in series [1], the Emax was 102% and the IC50 is 20 nM. In addition, on OGA, the Emax was 67% and the EC50 was 200 nM.

In turn, `Cc1ccc(OC2CCN(C(C)c3ccc4c(n3)OCCO4)CC2)cn1` (centres unmarked) (as salt: HCl) [Compound 41] came in with a melting point of 226.7 °C.

Turning to `Cc1cc(OC2CCN(C(C)c3nc4c(cc3F)OCCO4)CC2)nc(C)n1` (centres unmarked) [Compound 12], in series [1], the Emax was 99% and the IC50 was 15.8 nM. At OGA, the Emax worked out at 74% and the EC50 was 79.4 nM.

The compound `CC(c1nc2c(cc1F)OCCO2)N1CCC(Oc2ccc(C(=O)N(C(C)C)C(C)C)nc2)CC1` (centres unmarked) (as salt: HCl) [Compound 123] had a melting point of 139.7 °C.

`COc1cc(OC2CCN([C@H](C)c3nc4nc(C)sc4cc3F)CC2)cc(C)n1` (single isomer, unassigned) [Compound 80]: in series [1], the Emax turned out to be 96% and the IC50 was 631 nM. For the same compound, at OGA, the Emax was determined as 7% and the EC50 was above 1000 nM.

Take `C[C@@H](c1ccc2c(n1)OCCO2)N1CCC(Oc2ccc(C#N)nn2)CC1` [Compound 107]: in series [1], the Emax amounted to 96% and the IC50 is 158 nM. At OGA, the Emax amounted to 51% and the EC50 is 631 nM.

As for `Cc1cc(OC2CCN(C(C)c3ccc4c(n3)OCCO4)CC2)nc(C)n1` (single isomer, unassigned) [Compound 10], in series [1], the Emax came out at 100% and the IC50 was 50.1 nM. Further, at OGA, the maximum response (Emax) stood at 73% and the EC50 was 631 nM.
